In ChEMBL document CHEMBL1148291, “Prediction of human volume of distribution values for neutral and basic drugs. 2. Extended data set and leave-class-out statistics” (J Med Chem, 2004):

What was measured:
[1] = human, plasma
Description: Unbound fraction (plasma)

clinical = conditions: human, in vivo
Description: Observed volume of distribution

[2] = Ionization constant (pKa); assay type: physicochemical

Structure (SMILES): CC(C)(C)NCC(O)COc1cccc2c1C[C@H](O)[C@H](O)C2 (stereo not given in full) [NADOLOL]
- Fu [1]: 0.7
- Vd (clinical): 1.94 L/kg

Structure (SMILES): OCCN1CCN(CCCN2c3ccccc3Sc3ccc(Cl)cc32)CC1 [PERPHENAZINE]
- pKa [2]: 8.11
- Fu [1]: 0.07
- Vd (clinical): 20 L/kg
